Laboratory results reported in US11123320B2, “Prophylactic or therapeutic agent for hyperaciive bladder” (SBI PHARMACEUTICALS CO., LTD., priority 2017, dated 2021).

How the values were obtained:
[1] = tested on: NGF; experiment: NGF ELISA in rat bladder tissue; assay type: in vivo; details: male SHR, oral ALA with sodium ferrous citrate as in Example 1, vs control group
Protocol: ALA administration to a subject and the change in the amount of NGF expression was investigated. Since micturition reflex is enhanced when NGF increases in the bladder thus resulting in overactive bladder, NGF is employed as a lower urinary tract dysfunction marker.
(§1) Preparation of the experimental and control groups was carried out with the method and conditions similar to the method described in Example 1.
(§2) The bladder tissue of experimental and control groups were processed with the procedure below, and used as samples.
1. Wash 100 mg of tissue with 1×PBS.
2. Homogenize with 1 ml of 1×PBS.
(§3) 3. Store overnight at −20° C.
(§4) 4. Carry out freeze-thawing to destroy cell membrane, and centrifuge at 5000 G for 5 min at 4° C.
(§5) 5. Dispense and store at −20° C. or −80° C.
(§6) 6. After thawing, centrifuge again and employ for assay.
ELISA assay was performed with Rat NGF ELISA kit (CUSABIO CSB-E24685r) according to the protocol provided by the manufacturer.

[2] = tested on: VEGF; experiment: VEGF ELISA in rat bladder tissue; assay type: in vivo; details: male SHR, oral ALA with sodium ferrous citrate as in Example 1, vs control group
Protocol: ALA administration to a subject and the change in the amount of VEGF expression was investigated. VEGF is a vascular endothelial growth factor, and is used as a marker of bladder vascular endothelial dysfunction.
as §1, §2
1. Wash 100 mg of tissue with 1×[…].
2. Homogenize with 500 μl of 1×PBS.
as §3, §4, §5, §6
ELISA assay was performed with Rat VEGF ELISA kit (CUSABIO CSB-E04757r) according to the protocol provided by the manufacturer.

[3] = tested on: Nrf2; experiment: Nrf2 ELISA in rat bladder tissue; assay type: in vivo; details: male SHR, oral ALA with sodium ferrous citrate as in Example 1, vs control group
Protocol: ALA administration to a subject and the change in the amount of Nrf2 expression was investigated. Nrf2 is one of transcription factors that regulate the expression of antioxidant enzymes or detoxication metabolism enzymes to control oxidative stress, and is employed as an oxidative stress marker.
as §1, §2
1. Wash excess blood with PBS.
3. Place 600 μl of PBS on ice in a biomasher to finely mince tissue.
4. Perform ultrasonic wave treatment or freeze-thawing (−20° C./room temperature) 3 times.
5. Centrifuge at 5000 G for 5 minutes.
6. Move the supernatant to a new tube (measure protein concentration).
ELISA assay was performed with Rat NFE2L2/NRF2 ELISA kit (LSBio LS-F12145) according to the protocol provided by the manufacturer.

[4] = tested on: overactive bladder model rats (SHR); experiment: Urination kinetics measurement with a metabolic cage; assay type: in vivo, rat; details: male SHR, vs saline control
Protocol: Twelve weeks old male SHR (spontaneously hypertension rata) were employed as experimental rats, and the experimental groups were divided into groups I-III by ALA administration conditions below. For experimental group II, ALA and sodium ferrous citrate were orally administered on experiment start day. The dosage of ALA was set at 10 mg/kg of body weight and sodium ferrous citrate was set at 15.7 mg/kg of body weight. On the other hand, for experimental group III, ALA was set at 100 mg/kg of body weight and sodium ferrous citrate was set at 157 mg/kg of body weight. Note that for control group I, saline only at an amount equal to ALA was administered instead of ALA and sodium ferrous citrate.
For control group I, saline was orally administered every day from experiment start day (12 weeks old) to week 6 (18 weeks old).
For experimental groups II and III, ALA and sodium ferrous citrate was orally administered every day from experiment start day (12 weeks old) to week 6 (18 weeks old).
For each experimental group, urination kinetics measurement with a metabolic cage was performed. Specifically, measurements were performed at 12 weeks old (before ALA administration) and at 18 weeks old (after ALA administration) to measure single urination amount, 24-hour urination amount, and water drinking amount. Here, the method based on Yono et al., Life Sci. 2007 Jun. 27; 81(3):218-222 (non-anesthetized, unrestrained, and day-and-night continuous measurement method of mouse urination function) was adopted as the measurement method with a metabolic cage. Note that before measurement of urination kinetics, body weight, blood pressure, and heart rate were measured as a caution in addition to the urination amount and water drinking amount. Moreover, when measuring urination kinetics, total number of urination was also measured.

[5] = tested on: MDA (Malondialdehyde); experiment: MDA assay in rat bladder tissue; assay type: in vivo; details: male SHR, oral ALA with sodium ferrous citrate as in Example 1; vs control group
Protocol: ALA administration to a subject and the change in the amount of MDA expression was investigated. MDA is one of lipid peroxidative degradation products, and is known as a major marker of lipid peroxidation.
as §1, §2
1. Subject to biomasher with 400 μl of cold assay buffer.
2. Centrifuge at 15000 rpm for 5 min at 4° C. After centrifugation, add 300 μl of buffer to the supernatant and store on ice.
3. Correct with protein concentration.
ELISA assay was performed with Malondialdehyde Assay kit (NWK-MDA01) according to the protocol provided by the manufacturer.

[6] = tested on: bladder blood flow of SHR rats; experiment: Bladder blood flow measurement (hydrogen clearance method); assay type: in vivo, rat; details: male SHR after 6 weeks oral ALA 10 or 100 mg/kg with sodium ferrous citrate, vs control
Protocol: After said cystometry, bladder blood flow measurement (hydrogen clearance method) was performed according to the procedures below. (1) A silver chloride plate which is an indifferent electrode is buried under the precordium of each rat. (2) Wire platinum electrodes are incised into the bladder wall (three places in the bladder wall, data is collected 3 times each). (3) Blood flow is measured using UH-METER. Specifically, a hydrogen tank is opened to 0.3 L/min, and 100% hydrogen is directly inhaled with a funnel. Hydrogen is given until peaked, and hydrogen clearance curve is measured with the PowerLab system. The timepoint when the hydrogen clearance curve begins to drop is set at 0 second, and recording was performed for about 180 seconds. (4) The blood flow amount was calculated from the regression curve. * Half-life (T½) is determined from the regression curve Y=B−AX.

[7] = tested on: detrusor muscle / bladder of SHR rats; experiment: Cystometry (overactive status of the detrusor muscle); assay type: in vivo, rat; details: 18 weeks old male SHR under urethane anesthesia, after 6 weeks oral ALA 10 or 100 mg/kg with sodium ferrous citrate; vs group without ALA
Protocol: Note that cystometry verifies the overactive status of the detrusor muscle, and is established as a method for examining overactive bladder. (1) 18 weeks old male SHR/Hos rats and Wistar/ST rat are subjected to general anesthesia by urethane (1.0 g/kg, i.p.). (2) Each rat is laid down and the extremities are fixed with packaging tape. Laparotomy is then performed, and the bladder is pressed to allow urination. Absorbent cotton with saline is placed on top to prevent drying and left for 30 minutes. (3) A catheter for cystometry is inserted into the bladder of each rat. Here, the catheter is joined to a three-way stopcock, and one end is connected to a syringe pump to continuously infuse saline into the bladder at a constant speed (12 ml/hr). The other end is connected to a pressure transducer to monitor and amplify with a pressure amplifier, and incorporated into a personal computer via Powerlab system for recording. (4) Saline is then infused and left for about 30 minutes until stable. (5) Watch the wave form to collect single urine into a 1.5 ml tube, and the weight of urine is measured. (6) Residual urine of each rat is collected and the amount is measured. (7) Peaks at similar interval and height are consecutively taken 6 times (about 1 hour).

[8] = ALA 10 or 100 mg/kg with sodium ferrous citrate orally every day for 6 weeks

NCC(=O)CCC(=O)O [ALA, 5-aminolevulinic acid]
amount of NGF expression in bladder tissue [1]: significantly reduced
amount of VEGF expression in bladder tissue [2]: significantly reduced
amount of Nrf2 expression in bladder tissue [3]: significantly reduced
increase in single urination amount compared to the control group ([4]; ALA 10 or 100 mg/kg with sodium ferrous citrate 15.7 or 157 mg/kg orally every day for 6 weeks, measured at 18 weeks old): approximately 30%
24-hour urination amount compared to the control group [4, 8]: increase in 24-hour urination amount
24-hour water drinking amount [4, 8]: increase in water drinking amount
amount of MDA expression in bladder tissue [5]: significantly reduced
bladder blood flow amount [6]: tendency of bladder blood flow to increase ALA dosage-dependently
urination interval (cystometry) [7]: extension of urination interval
